Measured values taken from patent publication US9809583B2 (priority 2014, dated 2017).

Each compound was assayed against androgen receptor (hAR) (Homo sapiens (Human), UniProt P10275) (assay: Test of transcriptional activity (hAR / ARE-Luc dual-luciferase assay in CHO cells)). Conditions: CHO cells with hAR and ARE-Luc, 24 hours; 10 nM DHT = 100%; read-out: EC50 [nM] (mean ± SE).
Chain of androgen receptor (hAR) (P10275 whole entry): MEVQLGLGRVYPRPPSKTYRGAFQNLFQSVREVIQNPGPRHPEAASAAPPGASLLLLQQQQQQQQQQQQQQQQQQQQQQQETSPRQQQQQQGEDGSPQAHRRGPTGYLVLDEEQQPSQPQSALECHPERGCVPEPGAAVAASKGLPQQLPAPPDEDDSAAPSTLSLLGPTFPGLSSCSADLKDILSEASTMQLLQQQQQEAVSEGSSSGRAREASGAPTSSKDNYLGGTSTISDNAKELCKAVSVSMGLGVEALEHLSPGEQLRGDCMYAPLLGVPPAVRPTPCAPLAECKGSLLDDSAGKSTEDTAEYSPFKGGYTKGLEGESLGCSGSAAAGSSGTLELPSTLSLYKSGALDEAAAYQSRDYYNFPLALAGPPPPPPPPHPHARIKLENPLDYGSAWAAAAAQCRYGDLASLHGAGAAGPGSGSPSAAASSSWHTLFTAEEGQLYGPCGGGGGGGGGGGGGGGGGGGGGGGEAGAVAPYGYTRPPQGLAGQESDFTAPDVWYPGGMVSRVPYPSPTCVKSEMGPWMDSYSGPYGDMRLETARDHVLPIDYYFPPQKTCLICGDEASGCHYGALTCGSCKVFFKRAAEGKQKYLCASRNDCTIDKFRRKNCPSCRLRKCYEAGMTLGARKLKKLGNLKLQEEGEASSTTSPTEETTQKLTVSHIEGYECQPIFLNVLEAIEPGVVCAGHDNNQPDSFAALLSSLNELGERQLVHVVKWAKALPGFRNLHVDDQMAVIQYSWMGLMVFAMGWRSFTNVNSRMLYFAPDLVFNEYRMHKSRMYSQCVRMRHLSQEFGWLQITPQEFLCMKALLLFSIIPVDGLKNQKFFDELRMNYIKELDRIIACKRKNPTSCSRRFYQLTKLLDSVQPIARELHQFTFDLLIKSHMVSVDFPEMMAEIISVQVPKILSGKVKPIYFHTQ
Format: cell-based
Protocol: In order to examine the transcriptional activity of the agonists of the present invention, the following in-vitro experiment was performed. CHO (Chinese hamster ovary) cell line (ATCC, #CCL-61) was seeded in a 96-well plate at a density of 1.5×10^4 cells/well, and cultured for 24 hours. Then, a plasmid hAR and plasmid ARE-Luc-mixed medium was added thereto. The transfected cell line was treated with 0.1˜10,000 nM of SARM derivatives, and then allowed to react for 24 hours.
“(2R,5S)-3-(3-chloro-4-cyanophenyl)-N-(4-cyanophenyl)-2-(trifluoromethyl)oxazolidine-5-carboxamide [Example 117]” was tested, and the EC50 was 2 nM. In the case of “(2R,5S)-N-(6-acetamidopyridin-3-yl)-3-(4-cyano-3-(trifluoromethyl)phenyl)-2-(trifluoromethyl)oxazolidine-5-carboxamide [Example 135]”, the EC50 is reported as 4.95 nM. In the case of “(2R,5S)-N-(2-chloropyridin-4-yl)-3-(3-methyl-4-nitrophenyl)-2-(trifluoromethyl)oxazolidine-5-carboxamide [Example 137]”, the EC50 is reported as 1.77 nM. Compound Cc1cc(N2C[C@@H](COc3ccc(C#N)nc3)O[C@@H]2C(F)(F)F)ccc1[N+](=O)[O-] [Example 55, 5-(((2R,5S)-3-(3-methyl-4-nitrophenyl)-2-(trifluoromethyl)oxazolidin-5-yl)methoxy)picolinonitrile] has an EC50 of 4.49 nM. For “(2R,5S)-N-(6-cyanopyridin-3-yl)-3-(3-methyl-4-nitrophenyl)-2-(trifluoromethyl)oxazolidine-5-carboxamide [Example 116]”, the EC50 was 4.32 nM. “(2R,5S)-3-(3-chloro-4-cyanophenyl)-N-(4-cyano-2-fluorophenyl)-2-(trifluoromethyl)oxazolidine-5-carboxamide [Example 119]” showed an EC50 of 227 nM. For COC(=O)N1CCN(C(=O)[C@@H]2CN(c3ccc([N+](=O)[O-])c(C)c3)[C@@H](C(F)(F)F)O2)CC1 [Example 179, methyl 4-((2R,5S)-3-(3-methyl-4-nitrophenyl)-2-(trifluoromethyl)oxazolidine-5-carbonyl)piperazine-1-carboxylate], the EC50 was 42 nM.

Same assay, conditions: EC50 [nM] (mean ± SE), CHO cells with hAR and ARE-Luc, 24 hours; 10 nM DHT = 100%
N#Cc1ccc(N2C[C@@H](COc3ccc(N4CCOC4=O)cc3)O[C@@H]2C(F)(F)F)cc1C(F)(F)F [Example 38, 4-((2R,5S)-5-((4-(2-oxooxazolidin-3-yl)phenoxy)methyl)-2-(trifluoromethyl)oxazolidin-3-yl)-2-(trifluoromethyl)benzonitrile] showed an EC50 of 165 nM. Compound N#Cc1ccc(N2C[C@@H](C(=O)Nc3ccc(N)cc3F)O[C@@H]2C(F)(F)F)cc1C(F)(F)F [Example 105, (2R,5S)-N-(4-amino-2-fluorophenyl)-3-(4-cyano-3-(trifluoromethyl)phenyl)-2-(trifluoromethyl)oxazolidine-5-carboxamide] has an EC50 of 49.9 nM. With N#Cc1ccc(N2C[C@@H](COc3ccc(C(F)(F)F)cc3)O[C@@H]2C(F)(F)F)cc1C(F)(F)F [Example 37, 2-(trifluoromethyl)-4-((2R,5S)-2-(trifluoromethyl)-5-((4-(trifluoromethyl)phenoxy)methyl)oxazolidin-3-yl)benzonitrile] the EC50 was 31.6 nM. For N#Cc1cccc(OC[C@@H]2CN(c3ccc(C#N)c(C(F)(F)F)c3)[C@@H](C(F)(F)F)O2)c1 [Example 46, 4-((2R,5S)-5-((3-cyanophenoxy)methyl)-2-(trifluoromethyl)oxazolidin-3-yl)-2-(trifluoromethyl)benzonitrile], the EC50 was 31.5 nM. With N#Cc1ccc(N2C[C@@H](COc3ccc(CC(=O)O)cc3)O[C@@H]2C(F)(F)F)cc1C(F)(F)F [Example 52, 2-(4-(((2R,5S)-3-(4-cyano-3-(trifluoromethyl)phenyl)-2-(trifluoromethyl)oxazolidin-5-yl)methoxy)phenyl)acetic acid] the EC50 was 759 nM. For N#Cc1ccc(N2C[C@@H](COc3ccnc(Cl)c3)O[C@@H]2C(F)(F)F)cc1C(F)(F)F [Example 68, 4-((2R,5S)-5-(((2-chloropyridin-4-yl)oxy)methyl)-2-(trifluoromethyl)oxazolidin-3-yl)-2-(trifluoromethyl)benzonitrile], the EC50 was 6.06 nM. N#Cc1ccc(N2C[C@@H](C(=O)N3CCN(C#N)CC3)O[C@@H]2C(F)(F)F)cc1C(F)(F)F [Example 174, 4-((2R,5S)-3-(4-cyano-3-(trifluoromethyl)phenyl)-2-(trifluoromethyl)oxazolidine-5-carbonyl)piperazine-1-carbonitrile] was tested, and the EC50 was 139 nM. N#CCC(=O)Nc1ccc(OC[C@@H]2CN(c3ccc(C#N)c(C(F)(F)F)c3)[C@@H](C(F)(F)F)O2)cc1 [Example 95, 2-cyano-N-(4-(((2R,5S)-3-(4-cyano-3-(trifluoromethyl)phenyl)-2-(trifluoromethyl)oxazolidin-5-yl)methoxy)phenyl)acetamide] showed an EC50 of 2.81 nM. With COC(=O)N1CCN(C(=O)[C@@H]2CN(c3ccc(C#N)c(Cl)c3)[C@@H](C(F)(F)F)O2)CC1 [Example 178, methyl 4-((2R,5S)-3-(3-chloro-4-cyanophenyl)-2-(trifluoromethyl)oxazolidine-5-carbonyl)piperazine-1-carboxylate] the EC50 was 21.2 nM. N#Cc1ccc(N2C[C@@H](COc3ccc(/C=N/O)cc3)O[C@@H]2C(F)(F)F)cc1Cl [Example 74, 2-chloro-4-((2R,5S)-5-((4-((E)-(hydroxyimino)methyl)phenoxy)methyl)-2-(trifluoromethyl)oxazolidin-3-yl)benzonitrile] showed an EC50 of 0.658 nM. For N#Cc1ccc(OC[C@@H]2CN(c3ccc(C#N)c(C(F)(F)F)c3)[C@@H]([C@H](O)C(F)(F)F)O2)cc1 [Example 49, 4-((2R,5S)-5-((4-cyanophenoxy)methyl)-2-((S)-2,2,2-trifluoro-1-hydroxyethyl)oxazolidin-3-yl)-2-(trifluoromethyl)benzonitrile], the EC50 was 1700 nM. In the case of N#Cc1ccc(N2C[C@@H](C(=O)Nc3cccnc3)O[C@@H]2C(F)(F)F)cc1C(F)(F)F [Example 110, (2R,5S)-3-(4-cyano-3-(trifluoromethyl)phenyl)-N-(pyridin-3-yl)-2-(trifluoromethyl)oxazolidine-5-carboxamide], the EC50 is reported as 80 nM. In the case of N#Cc1cccc(NC(=O)[C@@H]2CN(c3ccc(C#N)c(C(F)(F)F)c3)[C@@H](C(F)(F)F)O2)c1 [Example 141, (2R,5S)-3-(4-cyano-3-(trifluoromethyl)phenyl)-N-(3-cyanophenyl)-2-(trifluoromethyl)oxazolidine-5-carboxamide], the EC50 is reported as 44.2 nM. For Cc1c(N2C[C@@H](COc3ccncc3)O[C@@H]2C(F)(F)F)ccc(C#N)c1Cl [Example 76, 2-chloro-3-methyl-4-((2R,5S)-5-((pyridin-4-yloxy)methyl)-2-(trifluoromethyl)oxazolidin-3-yl)benzonitrile], the EC50 was 21.8 nM. N#Cc1ccc(N2C[C@@H](C(=O)Nc3ccc([N+](=O)[O-])cc3)O[C@@H]2C(F)(F)F)cc1C(F)(F)F [Example 155, (2R,5S)-3-(4-cyano-3-(trifluoromethyl)phenyl)-N-(4-nitrophenyl)-2-(trifluoromethyl)oxazolidine-5-carboxamide] was tested, and the EC50 was 823 nM. With CCOC(=O)Nc1ccc(OC[C@@H]2CN(c3ccc(C#N)c(C(F)(F)F)c3)[C@@H](C(F)(F)F)O2)cc1 [Example 41, ethyl(4-(((2R,5S)-3-(4-cyano-3-(trifluoromethyl)phenyl)-2-(trifluoromethyl)oxazolidin-5-yl)methoxy)phenyl)carbamate] the EC50 was 16.2 nM. With N#Cc1ccc(OC[C@@H]2CN(c3ccc(C#N)c(C(F)(F)F)c3)[C@H](C(F)(F)F)O2)cn1 [Example 45, 5-(((2S,5S)-3-(4-cyano-3-(trifluoromethyl)phenyl)-2-(trifluoromethyl)oxazolidin-5-yl)methoxy)picolinonitrile] the EC50 was 44.1 nM. Work on N#Cc1ccc(N2C[C@@H](COc3ccncc3)O[C@H]2C(F)(F)F)cc1C(F)(F)F [Example 80, 4-((2S,5S)-5-((pyridin-4-yloxy)methyl)-2-(trifluoromethyl)oxazolidin-3-yl)-2-(trifluoromethyl)benzonitrile] yielded an EC50 of 34 nM.
